What was measured:
[1] = Pharmacokinetic study in mice (oral administration); type: in vivo; details: mouse, serum, 25 mg/kg, male ICR mice, suspension in 0.5% methylcellulose 2.5 mg/mL at 10 mL/kg, 12 hours after administration, HPLC, read-out: serum concentration of the test compound
Experimental: The compounds of Examples 2, 4, 5, 12 and 16 were used as test compounds.
A test compound suspended in 0.5% methylcellulose (2.5 mg/mL) was orally administered at 10 mL/kg to male ICR mice (6 week-old, three animals in a group). At 12 hours after the administration, the blood of the mice was collected, and the concentrations of the test compound in the serum were measured by HPLC.

HIV-1 (JRCSF) [2] = assay: Anti-HIV activity (Test Example 1-1): MaRBLE cells infected with HIV-1 (JRCSF), compound added 2 h after seeding, luciferase readout after 7 days; type: cell-based; details: Human immunodeficiency virus 1, 168 h, 7 days culture, firefly luciferase, virus growth rate, 4 parameter Logistic Model (XLfit 4)
Experimental: (§1) This example was carried out by reference to Journal of Clinical Microbiology, 2007, Vol. 45, pages 477 to 487.
(§2) An anti-HIV activity was evaluated using MaRBLE cells obtained by transfection of HPB-M(a) derived from human T-lymphocytes with a luciferase gene of which expressions were regulated by HIV-1 LTR and a CCR5 gene etc.
The MaRBLE cells were suspended in RPMI1640 containing 10% FCS (fetal calf serum) and penicillin/streptomycin. After infected with HIV-1 (JRCSF), the cells were seeded on a 96-well plate (1×10^5 cells/well). As a control group, the same number of uninfected cells were seeded.
After incubating the plate under the condition of 37° C. and 5% CO2 for 2 hours, a fresh culture medium or a culture medium containing an appropriately diluted test compound was added to each well.
After further culturing at 37° C. under 5% CO2 for 7 days, an intracellular luciferase activity was measured using Dual-Glo Luciferase assay system (Promega).
(§3) The virus growth rate was calculated by the following equation.
(§4) Virus growth rate (%)=(A/B)×100
(§5) A=(Firefly luciferase activity in the well with the compound)−(Firefly luciferase activity of uninfected cells)
(§6) B=(Firefly luciferase activity in the well without the compound)−(Firefly luciferase activity of uninfected cells)
The IC50 of the compound was calculated by applying virus growth rates of various concentrations to 4 parameter Logistic Model of curve-fitting software XLfit 4.

HIV-1 (JRCSF) [3] = assay: Anti-HIV activity (Test Example 1-2): infected MaRBLE cells seeded on plate containing drug solution, luciferase readout after 7 days; type: cell-based; details: Human immunodeficiency virus 1, 168 h, MaRBLE cells infected with HIV-1 (JRCSF), 7 days culture, firefly luciferase, FORECAST linear regression (Excel)
Experimental: as §1, §2
A plate containing a drug solution was made by dispensing a fresh culture medium or an appropriately diluted test compound to a 96-well plate.
MaRBLE cells were suspended in RPMI1640 containing 10% FCS (fetal calf serum) and penicillin/streptomycin. After infected with HIV-1 (JRCSF), the cells were seeded on the above-described plate containing a drug solution ([…] cells/well). As a control group, the same number of uninfected cells were seeded.
After culturing at 37° C. under 5% CO2 for 7 days, an intracellular luciferase activity was measured using Dual-Glo Luciferase assay system (Promega).
as §3, §4, §5, §6
The IC50 of the compound was calculated by plotting the concentration with the logarithm and by plotting the virus growth rate with a real number, using the FORECAST function (linear regression technique) of Microsoft Office Excel 2003.

Structure (SMILES)	IC50 (HIV-1 (JRCSF) [2]) [nM]	also measured
Cc1noc(C)c1-c1ccc2c(=O)cc(C)n(Cc3ccccc3N)c2c1 [Example 5, 1-(2-aminobenzyl)-7-(3,5-dimethylisoxazol-4-yl)-2-methyl-1,4-dihydro-4-oxoquinoline]		concentration at 12 h [1]: ≥ 500 ng/mL
Cc1noc(C)c1-c1ccc2c(=O)cc(C)n(Cc3ccccc3N)c2c1 [Example 5-2, 1-(2-aminobenzyl)-7-(3,5-dimethylisoxazol-4-yl)-2-methyl-1,4-dihydro-4-oxoquinoline.½ pinacol adduct]	0.27	
Cc1noc(C)c1-c1ccc2c(=O)cc(CO)n(Cc3ccccc3N)c2c1 [Example 7, 1-(2-aminobenzyl)-7-(3,5-dimethylisoxazol-4-yl)-2-hydroxymethyl-1,4-dihydro-4-oxoquinoline]	0.2	
Cc1noc(C)c1-c1ccc2c(=O)cc(N)n(-c3ccc(F)cc3F)c2c1 [Example 10, 2-amino-1-(2,4-difluorophenyl)-7-(3,5-dimethylisoxazol-4-yl)-1,4-dihydro-4-oxoquinoline]	2.8	
Cc1noc(C)c1-c1ccc2c(=O)cc(C)n(Cc3cccc(F)c3N)c2c1 [Example 11, 1-(2-amino-3-fluorobenzyl)-7-(3,5-dimethylisoxazol-4-yl)-2-methyl-1,4-dihydro-4-oxoquinoline]	0.62	
Cc1noc(C)c1-c1cc2c(cc1F)c(=O)cc(C)n2Cc1ccccc1N [Example 13, 1-(2-aminobenzyl)-7-(3,5-dimethylisoxazol-4-yl)-6-fluoro-2-methyl-1,4-dihydro-4-oxoquinoline]		IC50 (HIV-1 (JRCSF) [3]): 2.9 nM
Cc1noc(C)c1-c1ccc2c(=O)cc(C)n(Cc3cc(F)cc(F)c3N)c2c1 [Example 14, 1-(2-amino-3,5-difluorobenzyl)-7-(3,5-dimethylisoxazol-4-yl)-2-methyl-1,4-dihydro-4-oxoquinoline]		IC50 (HIV-1 (JRCSF) [3]): 0.55 nM
CCc1cc(=O)c2ccc(-c3c(C)noc3C)cc2n1-c1cc(N)c(F)cc1F [Example 16, 1-(5-amino-2,4-difluorophenyl)-7-(3,5-dimethylisoxazol-4-yl)-2-ethyl-1,4-dihydro-4-oxoquinoline]	7.2	concentration at 12 h [1]: ≥ 500 ng/mL
CCc1cc(=O)c2ccc(-c3c(C)noc3C)cc2n1Cc1cccc(F)c1N [Example 17, 1-(2-amino-3-fluorobenzyl)-7-(3,5-dimethylisoxazol-4-yl)-2-ethyl-1,4-dihydro-4-oxoquinoline]	0.26	
Cc1noc(C)c1-c1ccc2c(=O)cc(C)n(Cc3cccnc3N)c2c1 [Example 18, 1-((2-aminopyridin-3-yl)methyl)-7-(3,5-dimethylisoxazol-4-yl)-2-methyl-1,4-dihydro-4-oxoquinoline]	3.5	
Cc1noc(C)c1-c1ccc2c(=O)cc(CO)n(-c3cc(N)c(F)cc3F)c2c1 [Example 19, 1-(5-amino-2,4-difluorophenyl)-7-(3,5-dimethylisoxazol-4-yl)-2-(hydroxymethyl)-1,4-dihydro-4-oxoquinoline]	1.7	
Cc1noc(C)c1-c1ccc2c(=O)cc(N)n(-c3cc(N)c(F)cc3F)c2c1 [Example 20, 2-amino-1-(5-amino-2,4-difluorophenyl)-7-(3,5-dimethylisoxazol-4-yl)-1,4-dihydro-4-oxoquinoline]	2.6	
Cc1noc(C)c1-c1ccc2c(=O)cc(CO)n(-c3ccc(F)cc3F)c2c1 [Example 22, 1-(2,4-difluorophenyl)-7-(3,5-dimethylisoxazol-4-yl)-2-hydroxymethyl-1,4-dihydro-4-oxoquinoline]	0.6	
Cc1noc(C)c1-c1ccc2c(=O)cc(CO)n(-c3cc(N)c(F)cc3F)c2n1 [Example 24, 1-(5-amino-2,4-difluorophenyl)-7-(3,5-dimethylisoxazol-4-yl)-2-hydroxymethyl-1,4-dihydro-4-oxo-1,8-naphthyridine]	0.54	
Cc1noc(C)c1-c1ccc2c(=O)cc(C)n(-c3ccc(F)cc3F)c2n1 [Example 25, 1-(2,4-difluorophenyl)-7-(3,5-dimethylisoxazol-4-yl)-2-methyl-1,4-dihydro-4-oxo-1,8-naphthyridine]	0.64	
Cc1noc(C)c1-c1ccc2c(=O)cc(CO)n(-c3ccc(F)cc3F)c2n1 [Example 26, 1-(2,4-difluorophenyl)-7-(3,5-dimethylisoxazol-4-yl)-2-hydroxymethyl-1,4-dihydro-4-oxo-1,8-naphthyridine]	0.23	
Cc1noc(C)c1-c1ccc2c(=O)cc(CN)n(-c3ccc(F)cc3F)c2n1 [Example 27, 2-(aminomethyl)-1-(2,4-difluorophenyl)-7-(3,5-dimethylisoxazol-4-yl)-1,4-dihydro-4-oxo-1,8-naphthyridine]	0.3	
Cc1noc(C)c1-c1ccc2c(=O)cc(N)n(-c3ccc(F)cc3F)c2n1 [Example 28, 2-amino-1-(2,4-difluorophenyl)-7-(3,5-dimethylisoxazol-4-yl)-1,4-dihydro-4-oxo-1,8-naphthyridine]	0.3	
Cc1noc(C)c1-c1ccc2c(=O)cc(C)n(Cc3ccccc3N)c2n1 [Example 29, 1-(2-aminobenzyl)-7-(3,5-dimethylisoxazol-4-yl)-2-methyl-1,4-dihydro-4-oxo-1,8-naphthyridine]	1.2	
Cc1noc(C)c1-c1ccc2c(=O)cc(C)n(-c3cc(N)c(S(C)(=O)=O)cc3F)c2c1 [Example 31, 1-(5-amino-2-fluoro-4-(methylsulfonyl)phenyl)-7-(3,5-dimethylisoxazol-4-yl)-2-methyl-1,4-dihydro-4-oxoquinoline]	1.8	
Cc1noc(C)c1-c1ccc2c(=O)cc(C)n(-c3cc(N)c(S(C)(=O)=O)cc3F)c2n1 [Example 33, 1-(5-amino-2-fluoro-4-(methylsulfonyl)phenyl)-7-(3,5-dimethylisoxazol-4-yl)-2-methyl-1,4-dihydro-4-oxo-1,8-naphthyridine]		IC50 (HIV-1 (JRCSF) [3]): 0.87 nM
Cc1noc(C)c1-c1ccc2c(=O)cc(C)n(-c3cc(N)c(Cl)cc3F)c2n1 [Example 34, 1-(5-amino-4-chloro-2-fluorophenyl)-7-(3,5-dimethylisoxazol-4-yl)-2-methyl-1,4-dihydro-4-oxo-1,8-naphthyridine]	0.48	
Cc1noc(C)c1-c1ccc2c(=O)cc(C)n(Cc3ccc(Cl)c(F)c3N)c2c1 [Example 35, 1-(2-amino-4-chloro-3-fluorobenzyl)-7-(3,5-dimethylisoxazol-4-yl)-2-methyl-1,4-dihydro-4-oxoquinoline]		IC50 (HIV-1 (JRCSF) [3]): 2.6 nM

Source: patent publication US20130005760A1, “HETEROCYCLIC COMPOUND HAVING AZOLE GROUP” (Toyama Chemical Co., Ltd., priority 2010, published 2013)
